Test results: patent publication US20240025862A1, “SUBSTITUTED N-PHENYLURACILS AND SALTS THEREOF, AND USE THEREOF AS HERBICIDAL ACTIVE SUBSTANCES” (Bayer Aktiengesellschaft, priority 2020, published 2024)

Experiments:
Assay type in all cases: in vivo
Oryza sativa (ORYSA) = assay: Post-emergence crop plant compatibility, greenhouse pot test (also comparative test C); conditions: for Post-emergence action against ORYSA (crop plant compatibility): vs untreated controls
Outline: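 Visual damage versus untreated plants (0% = like control, 100% = plants died) was scored about 3 weeks after a post-emergence spray in greenhouse pots. Treatment: one-leaf stage, WP or EC in water at 600 l/ha with 0.5% additive; a/b/c mark different dosages on the same crop.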

[1] = system: Amaranthus retroflexus (AMARE); assay: Post-emergence herbicidal action, greenhouse pot test; conditions: rated visually after about 3 weeks vs untreated controls, 100% = plants have died
Outline: (§1)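 Activity was scored by eye about 3 weeks after treatment against untreated plants, where 100% means dead plants and 0% means no difference. Plants at the one-leaf stage received a foliar spray of WP or EC formulations in water plus 0.5% additive (600 l/ha, up to 20 g/ha). Plants were grown in sandy loam pots in a greenhouse for 2–3 weeks before spraying.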

Veronica persica (VERPE) = assay: as above
Outline: as §1

[2] = system: Abutilon theophrasti (ABUTH); assay: as above; conditions: rated visually after about 3 weeks vs untreated controls, 100% = plants have died
Outline: as §1

[3] = system: Pharbitis purpurea (PHBPU); assay: as above
Outline: as §1

Avena fatua (AVEFA) = assay: as above; conditions: 20 g/ha, rated visually after about 3 weeks vs untreated controls, 100% = plants have died
Outline: as §1

[4] = system: Polygonum convolvulus (POLCO); assay: as above
Outline: as §1

Viola tricolor (VIOTR) = assay: as above
Outline: as §1

[5] = system: Echinochloa crus-galli (ECHCG); assay: Post-emergence herbicidal action, greenhouse pot test (also comparative test C)
Outline: (§2)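 Greenhouse pot plants in sandy loam were sprayed post-emergence at the one-leaf stage (2–3 weeks after sowing) with WP or EC formulations plus 0.5% additive at 600 l/ha water. Activity was rated visually after about 3 weeks versus untreated controls (100% = dead, 0% = like control); rates were 20 g/ha or less, and 5 g/ha or less in the comparative test.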

[6] = system: Alopecurus myosuroides (ALOMY); assay: as above; conditions: rated visually after about 3 weeks vs untreated controls, 100% = plants have died
Outline: as §2

[7] = system: Matricaria inodora (MATIN); assay: as above
Outline: as §2

Setaria viridis (SETVI) = assay: as above; conditions: for Post-emergence action against SETVI: 20 g/ha
Outline: as §2

[8] = system: Triticum aestivum (TRZAS); assay: Post-emergence crop plant compatibility, greenhouse pot test; conditions: vs untreated controls
Outline: (§3)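 Greenhouse pot test; post-emergence foliar spray at one-leaf stage, WP or EC in water + 0.5% additive, 600 l/ha. Visual rating after ~3 wk, % relative to untreated (0–100%).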

Zea mays (ZEAMX) = assay: as above; conditions: 1.25 g/ha, vs untreated controls
Outline: as §3

Row | SMILES | Post-emergence action against ORYSA (crop plant compatibility) (Oryza sativa (ORYSA); 1.25 g/ha) [%] | Post-emergence action at 1.25 g/ha against AMARE in % [1] [%] | Post-emergence action at 5 g/ha against AMARE in % [1] [%] | Post-emergence action at 20 g/ha against AMARE in % [1] [%] | Post-emergence action against VERPE (Veronica persica (VERPE); 5 g/ha) [%] | Post-emergence action against VERPE (Veronica persica (VERPE); 20 g/ha) [%] | Post-emergence action at 1.25 g/ha against ABUTH in % [2] [%] | Post-emergence action at 5 g/ha against ABUTH in % [2] [%] | Post-emergence action at 20 g/ha against ABUTH in % [2] [%] | Post-emergence action against PHBPU in % ([3]; dosage 1.25 g/ha) [%] | Post-emergence action against PHBPU in % ([3]; dosage 5 g/ha) [%] | Post-emergence action against PHBPU in % ([3]; dosage 20 g/ha) [%] | Post-emergence action at 20 g/ha against AVEFA in % (Avena fatua (AVEFA)) [%] | Post-emergence action against POLCO in % ([4]; dosage 20 g/ha) [%] | Post-emergence action against VIOTR (Viola tricolor (VIOTR); 1.25 g/ha) [%] | Post-emergence action against VIOTR (Viola tricolor (VIOTR); 5 g/ha) [%] | Post-emergence action against VIOTR (Viola tricolor (VIOTR); 20 g/ha) [%] | Post-emergence action against ECHCG in % ([5]; dosage 5 g/ha) [%] | Post-emergence action against ECHCG in % ([5]; dosage 20 g/ha) [%] | Post-emergence action at 5 g/ha against ALOMY in % [6] [%] | also measured
1 | Cn1c(C(F)(F)F)cc(=O)n(-c2cc(Oc3ccccc3OCC(=O)OCCOC(F)(F)F)c([N+](=O)[O-])cc2F)c1=O [I.6-41] | 10 | 100 | 100 | 100 | 100 | 100 | 100 | 100 | 100 | 100 | 100 | 100 | 80 | 100 | 100 | 100 | 100 | 100 | 100 | 80 | Post-emergence action against ORYSA (crop plant compatibility) (Oryza sativa (ORYSA); 5 g/ha): 10%; Post-emergence action against ORYSA in % (Oryza sativa (ORYSA); 20 g/ha, crop plant compatibility): 20%; Post-emergence action at 20 g/ha against ALOMY in % [6]: 100%; Post-emergence action against MATIN in % ([7]; dosage 5 g/ha): 80%; Post-emergence action against MATIN in % ([7]; dosage 20 g/ha): 100%; Post-emergence action against SETVI (Setaria viridis (SETVI)): 100%; Post-emergence action against SETVI in % (Setaria viridis (SETVI); dosage 1.25 g/ha): 100%; Post-emergence action against SETVI in % (Setaria viridis (SETVI); dosage 5 g/ha): 100%; Post-emergence action against TRZAS (crop plant compatibility) ([8]; 1.25 g/ha): 10%; Post-emergence action against TRZAS (crop plant compatibility) ([8]; 5 g/ha): 20%; Post-emergence action against TRZAS (crop plant compatibility) ([8]; 20 g/ha): 20%; Post-emergence action against ZEAMX (crop plant compatibility) (Zea mays (ZEAMX)): 20%
2 | CCOCCOC(=O)COc1ccccc1Oc1cc(-n2c(=O)cc(C(F)(F)F)n(C)c2=O)c(F)cc1C#N [I.9-2] | 0 | 100 | 100 | 100 | 100 | 100 | 100 | 100 | 100 | 100 | 100 | 100 | 90 | 100 | 100 | 100 | 100 | 100 | 100 | 80 | Post-emergence action against VERPE (Veronica persica (VERPE); 1.25 g/ha): 100%; Post-emergence action against POLCO in % ([4]; dosage 5 g/ha): 100%; Post-emergence action at 1.25 g/ha against ECHCG in % ([5]; 1.25 g/ha, rated visually after about 3 weeks vs untreated controls, 100% = plants have died): 80%; Post-emergence action at 20 g/ha against ALOMY in % [6]: 100%; Post-emergence action against MATIN in % ([7]; dosage 5 g/ha): 100%; Post-emergence action against MATIN in % ([7]; dosage 20 g/ha): 100%; Post-emergence action against SETVI (Setaria viridis (SETVI)): 100%; Post-emergence action against SETVI in % (Setaria viridis (SETVI); dosage 1.25 g/ha): 100%; Post-emergence action against SETVI in % (Setaria viridis (SETVI); dosage 5 g/ha): 100%; Post-emergence action against TRZAS (crop plant compatibility) ([8]; 1.25 g/ha): 20%
